Assay results taken from article PMC5840146, “Structure-Activity Relationship Analysis of 3-Phenylcoumarin-Based Monoamine Oxidase B Inhibitors” (Frontiers in Chemistry, 2018).
Several values for one entry are separate records, joined by “and”; a condition that tells them apart may be missing. Equal values may be shown once.

How the values were obtained:
[1] = target: T1, ERα (Homo sapiens, UniProt P03372); experiment: PolarScreen ER Alpha Competitor Assay (fluorescence polarization); format: binding; conditions: for inhibition at 10 µM / ER inhibition %: 10 μM
T1 construct: purchased Life Technologies
T1 sequence (P03372 1-595): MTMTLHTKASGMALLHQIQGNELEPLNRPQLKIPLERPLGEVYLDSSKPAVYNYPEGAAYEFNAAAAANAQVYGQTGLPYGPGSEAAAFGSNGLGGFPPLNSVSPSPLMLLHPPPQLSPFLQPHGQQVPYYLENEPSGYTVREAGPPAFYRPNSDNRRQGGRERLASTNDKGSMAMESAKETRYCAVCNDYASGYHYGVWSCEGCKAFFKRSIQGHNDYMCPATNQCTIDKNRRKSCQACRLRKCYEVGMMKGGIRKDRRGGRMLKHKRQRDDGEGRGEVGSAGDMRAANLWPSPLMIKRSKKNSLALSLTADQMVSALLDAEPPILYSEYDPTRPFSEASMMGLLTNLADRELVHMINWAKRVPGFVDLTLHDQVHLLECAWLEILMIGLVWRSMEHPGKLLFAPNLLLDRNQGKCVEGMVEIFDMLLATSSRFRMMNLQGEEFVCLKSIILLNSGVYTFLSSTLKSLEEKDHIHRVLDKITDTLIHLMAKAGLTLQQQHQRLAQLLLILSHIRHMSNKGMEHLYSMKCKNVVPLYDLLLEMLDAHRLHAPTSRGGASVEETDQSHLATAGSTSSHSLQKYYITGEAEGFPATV
Method: The pIC50 values for the derivatives (Table 1, Supplementary Table S1) were measured with green PolarScreen™ ER Alpha Competitor Assay (Life Technologies, CA, The United States of America) kit, following the manufacturer protocol as previously described (Niinivehmas et al., [2016]). The final concentration of the compounds ranged from 0.0007 to 10 000 nM in the dilution series which were performed as duplicates. The molecules were combined with 25 nM ERα and 4.5 nM fluormone in the assay buffer and placed on black low volume 384-well assay plate with NBS surface (Corning, NY, The United States of America). After mixing the assay plate, it was incubated for 2 h in RT. The fluorescence polarization was measured using excitation wave length 485 and emission wave length 535 with bandwidths of 25/20 nm on a 2104 EnVision® Multilabel Plate Reader which had EnVision Workstation version 1.7 (PerkinElmer, MA, The United States of America).

[2] = target: T2, MAO-B (Homo sapiens, UniProt P27338); experiment: continuous spectrophotometric MAO-B inhibition assay; format: biochemical; conditions: for LiPE: LiPE = pIC50 - QPlogPo/w, new analogs and pargyline; for IC50: dilution series 50 μM to 1 nM, duplicates, read-out: MAO-B inhibition IC50; for MAO-B inhibition %: 10 µM, 2h
T2 construct: purchased Sigma-Aldrich
T2 sequence (P27338 1-520): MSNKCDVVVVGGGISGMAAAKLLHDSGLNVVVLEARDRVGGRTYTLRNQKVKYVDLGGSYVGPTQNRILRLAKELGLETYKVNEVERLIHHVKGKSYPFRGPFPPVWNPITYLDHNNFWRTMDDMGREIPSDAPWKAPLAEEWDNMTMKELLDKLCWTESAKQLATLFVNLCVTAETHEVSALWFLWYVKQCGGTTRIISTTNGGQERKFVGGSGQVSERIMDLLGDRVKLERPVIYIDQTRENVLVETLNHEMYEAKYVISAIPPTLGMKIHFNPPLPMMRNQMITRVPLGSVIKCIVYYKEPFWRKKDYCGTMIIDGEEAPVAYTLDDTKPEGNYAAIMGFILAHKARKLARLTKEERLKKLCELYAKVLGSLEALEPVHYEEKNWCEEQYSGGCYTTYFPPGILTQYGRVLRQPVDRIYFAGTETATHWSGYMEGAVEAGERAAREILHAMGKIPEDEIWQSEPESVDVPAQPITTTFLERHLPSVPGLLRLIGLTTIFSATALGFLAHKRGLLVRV
Method: Both monoamine oxidase A (MAO-A) and B (MAO-B) protein and the reagents for the chromogenic solution of vanillic acid (4-hydroxy-3-methoxylbenzoic acid, 97% purity), 4-aminoantipyrine (reagent grade), horseradish peroxidase and the substrate tyramine hydrochloride (minimum 99% purity) as well as the potassium phosphate buffer, which was prepared using potassium phosphate dibasic trihydrate (≥99% ReagentPlus™) and potassium phosphate monobasic (minimum 98% purity, molecular biology tested), were purchased from Sigma-Aldrich (St. Louis, MO, USA) for the spectrophotometric assay.
The protocol for continuous spectrophotometric assay (Holt et al., [1997]) was followed in the activity measurements. The assay was performed in 0.2 M potassium phosphate buffer pH 7.6 on 96-well plates (Nunc™ 96F microwell plate without a lid, Nunc A/S, Roskilde, DK) in 200 μl total volume. The chromogenic solution containing 1 mM vanillic acid, 500 μM 4-aminoantipyrine and 8 U/ml horseradish peroxidase in 0.2 M potassium phosphate buffer pH 7.6 was mixed anew for each measurement. 5 mM tyramine solution was used as the substrate. In order to determine the activity of both MAO-B and MAO-A, concentration series as duplicates were prepared. The protein was combined with the chromogenic solution and incubated 30 min at 37°C. The background signal was measured using multilabel reader (Victor^TM X4, 2030 Multilabel Reader, PerkinElmer, Waltham, MA, USA) at A490 before reaching the total 200 μl volume by adding 20 μl of tyramine to final concentration of 0.5 mM on the plate. As a result, the final concentration of the chromogenic solution on the plate was 250 μM vanillic acid, 125 μM 4-aminoantipyrine and 2 U/ml horseradish peroxide. After adding the substrate, the plates were measured 300 times every 15 s using 1 s exposure time. The device was set to 37°C for the duration of the experiment.
The experiment conditions should produce absorbance change of ~0.35 (Holt et al., [1997]). […] The same wide panel of coumarin derivatives was additionally used to analyze the MAO-A inhibition at 100 μM (Table 1, Supplementary Table S1).
The measured data was then fitted on a curve using non-linear regression with the equation for log[inhibitor] vs. response. The IC50 values were therefore determined based on the curve fit. The fitted curves are shown on –log scale in Supplementary Figures S1, S2.

inhibition at 10 µM [1] [%]	inhibition at 10 µM [2] [%]	LiPE [2]	IC50 [2]	ER activity (in words) [1]	ER inhibition % [1] [%]	MAO-B inhibition % [2] [%]	MAO-B inhibition (in words) [2]	SMILES
1.08	105	2.11	343 nM					Cc1ccc2oc(=O)c(-c3ccc(C(F)(F)F)cc3)cc2c1 [derivative 5, 6-methyl-3-(4-(trifluoromethyl)phenyl)-2H-chromen-2-one]
0	112	3.53	~230 nM and 230 nM and 231 nM					COc1cccc(-c2cc3cc(OC)ccc3oc2=O)c1 [derivative 8, 6-methoxy-3-(3-methoxyphenyl)-2H-chromen-2-one]
0.29	90.3	3.04	798 nM					COc1cccc(-c2cc3ccccc3oc2=O)c1 [derivative 11, 3-(3-methoxyphenyl)-2H-chromen-2-one]
0	87.2	2.80	292 nM					COc1ccc2oc(=O)c(-c3cc(F)c(F)cc3F)cc2c1 [derivative 15, 6-methoxy-3-(2,4,5-trifluorophenyl)-2H-chromen-2-one]
8.8	77.6	2.13	1430 nM					COc1ccc2cc(-c3cc(F)c(F)cc3F)c(=O)oc2c1 [derivative 16, 7-methoxy-3-(2,4,5-trifluorophenyl)-2H-chromen-2-one]
0	93.9	2.72	617 nM					COc1ccc2oc(=O)c(-c3ccc(N(C)C)cc3)cc2c1 [derivative 18, 3-(4-(dimethylamino)phenyl)-6-methoxy-2H-chromen-2-one]
86.1	101	3.70	391 nM	prominent				COc1ccc2cc(-c3ccc(O)c(F)c3)c(=O)oc2c1 [derivative 20, 3-(3-fluoro-4-hydroxyphenyl)-7-methoxy-2H-chromen-2-one]
0	88.8	3.04	433 nM					COc1ccc2oc(=O)c(-c3ccc(F)cc3)cc2c1 [derivative 21, 3-(4-fluorophenyl)-6-methoxy-2H-chromen-2-one]
55.4	94.9	3.35	831 nM	prominent				COc1ccc2oc(=O)c(-c3ccc(O)c(F)c3)cc2c1 [derivative 22, 3-(3-fluoro-4-hydroxyphenyl)-6-methoxy-2H-chromen-2-one]
0	83.5	2.46	902 nM					Cc1ccc2oc(=O)c(-c3ccc(F)cc3)cc2c1 [derivative 23, 3-(4-fluorophenyl)-6-methyl-2H-chromen-2-one]
0	89.1	3.37	1060 nM					O=c1oc2ccc(O)cc2cc1-c1ccc(F)cc1 [derivative 24, 3-(4-fluorophenyl)-6-hydroxy-2H-chromen-2-one]
					0.00	67.49		COc1cccc(-c2cc3ccc(OC)cc3oc2=O)c1 [derivative 25]
				prominent	70.96	61.91		Cc1ccc(-c2cc3ccc(O)cc3oc2=O)cc1 [derivative 27]
				prominent	57.12	59.20		CC(=O)Oc1ccc2cc(-c3ccc(F)cc3)c(=O)oc2c1 [derivative 28]
				prominent	74.22	53.65		O=c1oc2ccccc2cc1-c1ccc(O)cc1 [derivative 29]
				prominent	58.53	52.68		O=c1oc2cc(O)ccc2cc1-c1ccc(O)cc1 [derivative 30]
					0.00	49.60		O=c1oc2ccccc2cc1-c1cccc(O)c1 [derivative 31]
					0.00	47.64		COc1ccc(-c2cc3cccc(O)c3oc2=O)cc1 [derivative 33]
					0.00	41.12		COc1ccc(-c2cc3ccccc3oc2=O)cc1 [derivative 36]
					18.53	27.16		O=c1oc2ccc(O)cc2cc1-c1cccc(O)c1 [derivative 38]
				prominent	100.63	26.44		O=c1oc2cc(O)ccc2cc1-c1ccc(F)cc1 [derivative 39]
				prominent	101.40	23.82	activity is lost	O=c1oc2cc(O)ccc2cc1-c1ccccc1 [derivative 41]
					0.00	19.73		COc1ccc2oc(=O)c(-c3ccc(Oc4ccc(F)cc4)cc3)cc2c1 [derivative 46]
				prominent	98.41	15.50		O=c1oc2ccc(O)cc2cc1-c1ccc(O)cc1 [derivative 48]

SMILES	inhibition at 10 µM [1] [%]	inhibition at 10 µM [2] [%]	LiPE [2]	IC50 [2]	ER activity (in words) [1]	ER inhibition % [1] [%]	MAO-B inhibition % [2] [%]	MAO-B inhibition (in words) [2]
COc1ccc(-c2cc3ccc(O)cc3oc2=O)cc1 [derivative 12, 7-hydroxy-3-(4-methoxyphenyl)-2H-chromen-2-one]	91.3	85.9	3.53	955 nM	prominent			
